Reference: patent US20230329236A1, “HERBICIDAL PYRIMIDINE DERIVATIVES” (MoA Technology Limited, priority 2020, published 2023)

Tests used:
Details in all cases: 336 h, Table 3, post-emergence, 14±1 days post application
[1] = test system: Echinochloa crus-gaffi (ECHCG); experiment: Post-emergence glasshouse test, visual injury, ECHCG; format: in vivo, Echinochloa crus-galli
Experimental: (§1) Seeds of a variety of test species are grown in a sandy loam soil mixture, Lolium multiflorum (LOLMU), Amaranthus retroflexus (AMARE), Echinochloa crus-gaffi (ECHCG), Veronica persica (VERPE), Glycine max (GLXMA), Oryza sativa (ORYSA), Zea mays (ZEAMX), spring wheat (TRZAS), Ipomoea hederacea (IPOHE), Ipomoea purpurea (PHBPU), Stellaria media (STEME), Solanum nigrum (SOLNI), Digitaria sanguinalis (DIGSA), Setaria italica (SETIT), Alopecurus myosuroides (ALOMY) and Avena fatua (AVEFA).
(§2) After sowing, at growth stage BBCH 12-14 (post-emergence), the plants are sprayed with an aqueous spray solution derived from the formulation of the technical active ingredient in acetone/water (50:50) solution containing 0.5% Tween 20 (polyoxyethlyene sorbitan monolaureate, CAS RN 9005-64-5). The test compounds are applied at the required concentration of active ingredient in g/ha. The test plants are then grown in a glasshouse under controlled environmental conditions and watered regularly as required. After 14±1 days post application (for post-emergence test), the test is evaluated by assessing the percentage damage caused to the plants in comparison with the untreated plots. The biological activities for post-emergence testing are shown below (Table 3 and Table 4) as a % visual injury.

[2] = test system: Amaranthus retroflexus (AMARE); experiment: Post-emergence glasshouse test, visual injury, AMARE; format: in vivo
Experimental: as §1, §2

[3] = test system: Lolium multiflorum (LOLMU); experiment: Post-emergence glasshouse test, visual injury, LOLMU; format: in vivo
Experimental: as §1, §2

Veronica persica (VERPE) = experiment: Post-emergence glasshouse test, visual injury, VERPE; format: in vivo
Experimental: as §1, §2

| SMILES | pest or weed control at 500 g/ha [1] [%] | pest or weed control at 500 g/ha [2] [%] | pest or weed control at 500 g/ha [3] [%] | pest or weed control at 500 g/ha (Veronica persica (VERPE)) [%] | pest or weed control at 125 g/ha [1] [%] | pest or weed control at 125 g/ha [2] [%] | pest or weed control at 125 g/ha [3] [%] | pest or weed control at 125 g/ha (Veronica persica (VERPE)) [%] | other results |
| --- | --- | --- | --- | --- | --- | --- | --- | --- | --- |
| COc1ccccc1CNc1ncc(-c2cc(C)no2)c(-c2ccc(C)o2)n1 [Compound 23] | 50 | 70 | 0 | 80 |  |  |  |  |  |
| CC(=O)N1CCN(c2ncc(-c3cc(C)no3)c(-c3ccncc3)n2)CC1 [Compound 59] | 0 | 0 | 50 | 90 |  |  |  |  |  |
| Cc1cccc(CNc2ncc(-c3cc(C)no3)c(C(C)C)n2)c1 [Compound 99] |  |  |  |  |  |  |  |  | pest or weed control at 62 g/ha [1]: 70%; pest or weed control at 62 g/ha [2]: 60%; pest or weed control at 62 g/ha [3]: 30%; pest or weed control at 62 g/ha (Veronica persica (VERPE)): 80% |
| Cc1ccc(CNc2ncc(-c3cc(C)no3)c(C(C)C)n2)cc1 [Compound 100] |  |  |  |  |  |  |  |  | pest or weed control at 62 g/ha [1]: 80%; pest or weed control at 62 g/ha [2]: 80%; pest or weed control at 62 g/ha [3]: 0%; pest or weed control at 62 g/ha (Veronica persica (VERPE)): 95% |
| Cc1ncc(-c2cnc(NC3CCCC3)nc2C(C)C)s1 [Compound 123] |  |  |  |  |  |  |  |  | pest or weed control at 62 g/ha [1]: 0%; pest or weed control at 62 g/ha [2]: 0%; pest or weed control at 62 g/ha [3]: 0%; pest or weed control at 62 g/ha (Veronica persica (VERPE)): 50% |
| Cc1cc(-c2cnc(N(C)C)nc2C(C)C)on1 [Compound 82] |  |  |  |  |  |  |  |  | pest or weed control at 250 g/ha [1]: 70%; pest or weed control at 250 g/ha [2]: 0%; pest or weed control at 250 g/ha [3]: 30%; pest or weed control at 250 g/ha (Veronica persica (VERPE)): 20% |
| Cc1cc(-c2cnc(NC3CCOCC3)nc2C(C)C)on1 [Compound 6] |  |  |  |  | 90 | 60 | 50 | 90 | pest or weed control at 250 g/ha [1]: 98%; pest or weed control at 250 g/ha [2]: 100%; pest or weed control at 250 g/ha [3]: 20%; pest or weed control at 250 g/ha (Veronica persica (VERPE)): 100% |
| CCN1CCN(c2ncc(-c3cc(C)no3)c(C(C)C)n2)CC1 [Compound 63] | 50 | 70 | 30 | 0 |  |  |  |  |  |
| Cc1cc(-c2cnc(NCC3CCOCC3)nc2C(C)C)on1 [Compound 109] |  |  |  |  | 0 | 40 | 0 | 70 |  |
| Cc1cc(-c2cnc(NC3CCC3)nc2C2CC2)on1 [Compound 12] |  |  |  |  |  |  |  |  | pest or weed control at 250 g/ha [1]: 90%; pest or weed control at 250 g/ha [2]: 100%; pest or weed control at 250 g/ha [3]: 30%; pest or weed control at 250 g/ha (Veronica persica (VERPE)): 100% |
| Cc1cc(-c2cnc(N3CCCCC3)nc2-c2ccc(C)o2)on1 [Compound 79] | 60 | 90 | 30 | 0 |  |  |  |  |  |
| Cc1cc(-c2cnc(N3CCC(C(N)=O)CC3)nc2C(C)C)on1 [Compound 69] | 0 | 50 | 0 | 60 |  |  |  |  |  |
| Cc1cc(-c2cnc(NCc3ccc(F)cc3)nc2C(F)(F)F)on1 [Compound 127] |  |  |  |  | 60 | 100 | 0 | 98 |  |
| Cc1cc(-c2cnc(N3CCN(S(=O)(=O)N(C)C)CC3)nc2C2CC2)on1 [Compound 53] | 50 | 20 | 20 | 0 |  |  |  |  |  |
| Cc1cc(-c2cnc(NCc3ccc(F)cc3)nc2C(C)C)on1 [Compound 93] |  |  |  |  | 80 | 100 | 60 | 100 |  |
| Cc1cc(-c2cnc(NCCc3c(C)noc3C)nc2C2CC2)on1 [Compound 46] | 70 | 90 | 60 | 50 |  |  |  |  |  |

| SMILES | pest or weed control at 500 g/ha [1] [%] | pest or weed control at 500 g/ha [2] [%] | pest or weed control at 500 g/ha [3] [%] | pest or weed control at 500 g/ha (Veronica persica (VERPE)) [%] | pest or weed control at 125 g/ha [1] [%] | pest or weed control at 125 g/ha [2] [%] | pest or weed control at 125 g/ha [3] [%] | pest or weed control at 125 g/ha (Veronica persica (VERPE)) [%] | other results |
| --- | --- | --- | --- | --- | --- | --- | --- | --- | --- |
| Cc1cc(-c2cnc(NC3CC3)nc2C(F)(F)F)on1 [Compound 114] |  |  |  |  | 20 | 0 | 0 | 70 |  |
| Cc1cc(-c2cnc(NCC3CCCC3)nc2C(C)C)on1 [Compound 107] |  |  |  |  | 50 | 30 | 0 | 50 |  |
| Cc1cc(-c2cnc(NC(C)C)nc2C(C)(C)C)on1 [Compound 73] | 70 | 70 | 40 | 0 |  |  |  |  |  |
| Cc1cc(-c2cnc(NCC3CCCCC3)nc2C(C)C)on1 [Compound 108] |  |  |  |  | 20 | 50 | 0 | 50 |  |
| Cc1cc(-c2cnc(NC3CC3)nc2-c2ccc(C)o2)on1 [Compound 44] | 20 | 70 | 30 | 20 |  |  |  |  |  |
| Cc1cc(-c2cnc(NC3CCOCC3)nc2C(F)(F)F)on1 [Compound 116] |  |  |  |  | 0 | 0 | 0 | 95 |  |
| Cc1cc(-c2cnc(NCCc3c(C)noc3C)nc2C(C)C)on1 [Compound 62] | 50 | 70 | 40 | 70 |  |  |  |  |  |
| Cc1cc(-c2cnc(NC3CCCc4sc(Cl)cc43)nc2C(C)C)on1 (stereo not drawn) [Compound 3] |  |  |  |  | 60 | 60 | 0 | 10 |  |
| Cc1cc(-c2cnc(NCc3ccccc3)nc2C(C)C)on1 [Compound 94] |  |  |  |  |  |  |  |  | pest or weed control at 62 g/ha [1]: 80%; pest or weed control at 62 g/ha [2]: 60%; pest or weed control at 62 g/ha [3]: 10%; pest or weed control at 62 g/ha (Veronica persica (VERPE)): 0% |
| Cc1cc(-c2cnc(N(C)C)nc2-c2ccc(C)o2)on1 [Compound 43] | 60 | 50 | 40 | 0 |  |  |  |  |  |
| Cc1cc(-c2cnc(N3CCC(C(N)=O)CC3)nc2-c2ccc(C)o2)on1 [Compound 19] |  |  |  |  |  |  |  |  | pest or weed control at 1000 g/ha ([1]; 1000 g/ha): 20%; pest or weed control at 1000 g/ha ([2]; 1000 g/ha): 70%; pest or weed control at 1000 g/ha ([3]; 1000 g/ha): 0%; pest or weed control at 1000 g/ha (Veronica persica (VERPE); 1000 g/ha): 0% |
| Cc1cc(-c2cnc(NCc3ccc(F)cc3)nc2C2CCC2)on1 [Compound 105] |  |  |  |  | 0 | 30 | 0 | 50 |  |
| Cc1cc(-c2cnc(NCCN3CCCC3=O)nc2C(C)C)on1 [Compound 42] | 50 | 70 | 10 | 60 |  |  |  |  |  |
| Cc1cc(-c2cnc(N3CCNC(=O)C3)nc2-c2ccc(C)o2)on1 [Compound 37] | 0 | 50 | 0 | 0 |  |  |  |  |  |
| COc1ccc(CCNc2ncc(-c3cc(C)no3)c(C3CC3)n2)cc1OC [Compound 78] | 80 | 95 | 40 | 99 |  |  |  |  |  |
| Cc1cc(-c2cnc(NC3CC3)nc2C(C)C)on1 [Compound 38] | 60 | 100 | 50 | 100 |  |  |  |  |  |
